Data published in PubChem BioAssay (NCI).
“And” between values parts separate entries of the source, which are not always exact repeats. Identical values can stand only once.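 Five compound concentrations were applied to cells in 96-well plates for 48 hours; endpoints were derived by simple linear interpolation of the resulting dose-response curve. GI50 is the concentration that inhibits growth by half. At the TGI there is no net growth.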

Legend:
Assay in all cases: NCI anticancer screen, dose series, 48 h
NCI-H226 lung = system: NCI-H226 lung
SF-295 CNS = system: SF-295 CNS
786-0 renal = system: 786-0 renal
SN12C renal = system: SN12C renal
HCT-15 colon = system: HCT-15 colon
SK-OV-3 ovarian = system: SK-OV-3 ovarian
K-562 leukemia = system: K-562 leukemia

Row | SMILES | GI50 (NCI-H226 lung) | TGI (NCI-H226 lung) | GI50 (SF-295 CNS) | TGI (SF-295 CNS) | GI50 (786-0 renal) | TGI (786-0 renal) | GI50 (SN12C renal) | TGI (SN12C renal) [µM] | GI50 (HCT-15 colon) | TGI (HCT-15 colon) | GI50 (SK-OV-3 ovarian) | TGI (SK-OV-3 ovarian) | GI50 (K-562 leukemia) [µM] | TGI (K-562 leukemia)
1 | COc1ccc(-c2c(C#N)c(N3CCOCC3)nc3[nH]c(=S)[nH]c(=S)c23)cc1OC | 18.8 µM | 89.6 µM | 40.1 µM | > 100 µM | 30.7 µM | > 100 µM | 21.7 µM | 91.3 | 43.6 µM | > 100 µM | 29.1 µM | > 100 µM | 36.7 | > 100 µM
2 | O=c1[nH]c(O)c(C=Nc2ccc(-c3nc4ccccc4o3)cc2)c(=O)[nH]1 | 90.3 µM | > 100 µM | 23.7 µM | 68.9 µM | 32.9 µM | > 100 µM | > 100 µM | > 100 | 32.4 µM | > 100 µM | > 100 µM | > 100 µM | 35 | > 100 µM
3 | NC(N)=Nc1nc2ccccc2o1 | > 100 µM | > 100 µM | > 100 µM | > 100 µM | > 100 µM | > 100 µM | > 100 µM | > 100 | > 100 µM | > 100 µM | > 100 µM | > 100 µM | > 100 | > 100 µM
4 | COc1c2occc2c(N)c2ccc(=O)oc12 | – | > 100 µM | – | > 100 µM | – | > 100 µM | – | > 100 | – | > 100 µM | – | – | – | > 100 µM
5 | COc1ccc(-c2cc(=O)oc3c4c(ccc23)OCN(Cc2ccc(F)cc2)C4)cc1 | 18.2 µM | 54.5 µM | 15 µM | 30 µM | 15.1 µM | 32.8 µM | 15.6 µM | 32.2 | 15.4 µM | 31.8 µM | 19.1 µM | 52.9 µM | 19.3 | 68.4 µM
6 | Cc1cccc(NC2=C(Cl)C(=O)c3nc(C)ccc3C2=O)c1 | 1.1 µM | 2.78 µM | 1.49 µM | 2.96 µM | 1.79 µM | 3.36 µM | 1.17 µM | 2.5 | 0.431 µM | 2.09 µM | 11.7 µM | 24.2 µM | 0.45 | > 100 µM
7 | CCSc1nc(N=Cc2ccccc2O)c2cn[nH]c2n1 | 17.9 µM | 73.9 µM | 23.9 µM | 80.2 µM | 41.8 µM | > 100 µM | 26.3 µM | 95.1 | 39.8 µM | > 100 µM | > 100 µM | > 100 µM | 41.6 | > 100 µM
8 | COc1ccc(Cl)cc1NC(=O)c1ccc(NC2=C(Cl)C(=O)N(Cc3ccccc3)C2=O)cc1 | > 100 µM | > 100 µM | 36.2 µM | > 100 µM | > 100 µM | > 100 µM | 23 µM | > 100 | 10.7 µM | > 100 µM | – | – | 6.87 | > 100 µM
9 | CCn1cc(-c2ccnc3[nH]c(-c4cccc(CN(C)C)c4)cc23)c(-c2ccc(NC(=O)N(C)C)cc2)n1 | 0.25 µM and 0.451 µM | 16.2 µM and > 10 µM | 0.484 µM and 0.408 µM | 11.7 µM and > 10 µM | 2.79 µM and 2.59 µM | 20.3 µM and > 10 µM | 1.38 µM and 0.994 µM | > 57.8 | 2.85 µM and 3.15 µM | 27.2 µM and > 10 µM | 2.16 µM and 3.83 µM | 15.2 µM and > 10 µM | – | 17.2 µM and 2.96 µM
10 | CCCCCCCCSC1=C(Cl)C(=O)C(OC)=C(OC)C1=O | – | 34.6 µM | – | 47.4 µM | – | 30 µM | – | 18.4 | – | 72.5 µM | – | > 100 µM | – | > 100 µM
11 | O=C(Nc1nc(-c2c[nH]c3ccccc23)cs1)c1n[nH]c(=O)c2ccccc12 | 12.3 µM | 89.8 µM | 1.55 µM | 21.9 µM | 1.48 µM | > 47.5 µM | 10.8 µM | > 100 | 0.29 µM | > 36.7 µM | 12.6 µM | > 100 µM | 1.27 | > 100 µM
12 | NCCCn1c2c(c3ccc([N+](=O)[O-])cc3c1=O)C(=O)c1cc(I)ccc1-2 | 0.786 µM | 26.2 µM | < 0.0218 µM | 1.53 µM | 0.021 µM | 1.14 µM | < 0.0234 µM | 1.78 | 0.17 µM | 1.79 µM | 0.0825 µM | 6.5 µM | < 0.0147 | 0.196 µM
13 | COc1nc(=O)n(C2C=CC(=O)O2)cc1F (centres undefined) | 16.9 µM | 56.6 µM | 22.9 µM | 66.1 µM | 12.1 µM | 25.1 µM | 11.6 µM | 25.7 | 2.59 µM | 12 µM | 25.8 µM | 62.3 µM | – | –
14 | COC(=O)C1=CN(CC2=CC(=O)C(C)=CC2=O)C=C(C(=O)OC)C1c1ccccc1OC | 16.4 µM | 41.5 µM | 24.3 µM | > 55.5 µM | 15.1 µM | 28.9 µM | 14.8 µM | 32.9 | 18.9 µM | 39.2 µM | > 100 µM | > 100 µM | 0.495 | 14.9 µM
15 | CC[C@]1(O)C[C@H]2CN(CCc3c([nH]c4ccccc34)C(C(=O)OC)(c3cc4c(cc3OC)N(C)[C@H]3[C@@](O)(C(=O)OC)[C@H](OC(C)=O)[C@]5(CC)[C@@H]6C[C@@H]6CN6CC[C@]43[C@@H]65)C2)C1 (some centres undefined) | 0.0231 µM | > 1.59 µM | 0.00233 µM | 0.393 µM | 0.0068 µM | 5 µM | 0.00838 µM | > 14.3 | 0.0374 µM | > 14.3 µM | 0.00285 µM | 0.0176 µM | 0.00266 | 2.82 µM
16 | CN(Cc1cnc2nc(N)nc(N)c2n1)c1ccc(C(=O)N[C@@H](CCS(=O)(=O)O)C(=O)O)cc1 | – | > 100 µM | – | > 100 µM | 0.0955 µM | > 100 µM | – | > 100 | – | > 100 µM | – | > 100 µM | – | > 100 µM
17 | COc1cc2c(cc1OCCCN1CCN(CCCOc3cc4c(cc3OC)C(=O)N3CC(F)(F)C[C@H]3C=N4)CC1)N=C[C@@H]1CC(F)(F)CN1C2=O | 14 µM | 39.8 µM | – | – | 3.17 µM | 10.8 µM | 4.05 µM | 19.5 | 16.2 µM | 36.7 µM | 8.64 µM | > 100 µM | 1.74 | > 100 µM
18 | Cc1nc2sccn2c1-c1nc2sccn2c1/C=C1/C(=O)Nc2ccccc21 | 9.79 µM | > 100 µM | 2.12 µM | 8.09 µM | 1.79 µM | 24.7 µM | 16.8 µM | > 100 | 3.09 µM | 20.7 µM | 2.4 µM | 15.4 µM | > 100 | > 100 µM
